Measured values: US20050143453A1, “Selective preventing and therapeutic agents for progressive lesion after organic damage” (priority 2000, published 2005)
Read-outs that look alike come from different tables or passages of the source.

What was measured:
[1] = system: induction of effector macrophage by contact of human PBMC with lipopolysaccharide; experiment: SPFC production by LPS stimulation (Test Example 1); format: cell-based
Method: A suppressive effect of the test compound to effector macrophage induction was investigated in vitro by an induction and production system of spontaneous plaque-forming cell (SPEC) mentioned in M. Ishibashi, S. Jiang, Y. Kokado, S. Takahara, T. Sonoda: Immunopharmacologic effects of immunosuppressive agents explored by a new effector generation assay. Transplant Proc., 21: 1854-1858, 1989.
Heparin-added peripheral blood (40 ml) was collected from a healthy person and the same amount of EDTA-added physiological saline was added. PBMC were obtained by a specific gravity centrifugal method using Ficoll-Hypaque (manufactured by Pharmacia Fine Chemicals). Self-plasma was added thereto and allowed to stand at 37° C. for 10 minutes and platelets were removed by a low-speed centrifugal separation. RPMI 1640 liquid containing 15 μg/ml of gentamicin and 2 mM L-glutamine was used for washing the PBMC. Concentration of the PBMC was adjusted to 2×10^6 cells/ml using the same liquid.
Each 200 μl of a solution containing 2×10^6 PBMC/ml prepared in the step 1 were added to each well of a micro test plate, lipopolysaccharide (hereinafter, abbreviated as LPS) was diluted with the RPMI 1640 liquid to make the final concentration 80 μg/ml and the said LPS solution was added to each well of the 200 μl-micro test plate. Further, each 50 μl of human serum of type AB were added so as to make the concentration 10% by weight. Two such micro test plates were prepared.
After that, to the above two micro test plates was added a solution where the test compound was diluted with 1% by weight of DMSO so as to make the concentration of the test compound 1 μM. Similarly were prepared each two micro test plates where the final concentrations of the test compound were 0.1 μM, 0.01 μM and 0.001 μM.
The culture liquid prepared as such was incubated for 6 days at 37° C. in 5% CO2.
The effector macrophage induced after the incubation was all recovered using a rubber-policeman (spatula made of rubber). A Hanks solution containing 5 μg/ml of gentamicin was used for washing and, using the said solution, there was prepared a solution where the concentration of the induced effector macrophage was 2×10^6 per ml.
With regard to autologous erythrocytes, those which were preserved at 4° C. in a phosphate physiological saline (hereinafter, abbreviated as PBS) to which 0.1% by weight of AB serum and autologous erythrocytes obtained from PBMC separation were used were used. The preserved autologous erythrocytes were washed for three times with a Hanks solution to which no serum was added and made into a solution of 4% by weight concentration using the said Hanks solution. Poly-L-lysine was added to a Terasaki plate and washed with PBS every 20 minutes at 37° C., the above-mentioned autologous erythrocyte solution was added thereto immediately, the mixture was allowed to stand at 37° C. for 30 minutes and the erythrocytes which were not adhered to the plate were removed to prepare a Terasaki plate to which self-erythrocytes in a monolayer were adhered.
A Hanks solution (4 μl) was added to the said Terasaki plate, 4 μl of a solution containing the induced effector macrophage obtained in the step 3 were added thereto and the mixture was allowed to stand at 37° C. for 2 hours. After completion of the reaction, it was fixed by formalin. Numbers of the produced SPFC which were adhered or phagocytized were measured.
A mean SPFC production number was calculated from the measured values of SPFC production when the concentration of the test compound was the same. SPFC production number per 1×10^6 of the induced effector macrophage was calculated and, from the recovered induced effector macrophage numbers, total SPFC production amount (S2) was calculated.
As a control, no test compound was added and the same operation as above was carried out to calculate the total SPFC production amount (S1). […]

[2] = system: induction of effector macrophage by contact of human PBMC with mitomycin-treated human PBMC (allo-MLC); experiment: SPFC production by allo-MLC stimulation (Test Example 2); format: cell-based; conditions: for functional group (selective suppression of SPFC production by allo-MLC or LPS stimulation): summary of Table 1
[3] = system: obstruction-released kidney of male SD rats; experiment: Obstruction release model after complete obstruction of unilateral ureter for 14 days (UUO/Release, Test Example 3); format: in vivo, rat; parameters: key to Suppressive Effect to Glomerular Lesion / Suppressive Effect to Lesion of Tubulointerstitial Tissue: ∘: available; Δ: somewhat available; x: not available; conditions: for Suppressive Effect to Glomerular Lesion / Suppressive Effect to Lesion of Tubulointerstitial Tissue: Experimental Model of Rat: UUO/Release
Method: Obstruction Release Model after Complete Obstruction of Unilateral Ureter for 14 Days
Experimental models were prepared by a method devised and established by Ishibashi (Michio Ishibashi, et al.: The Japanese Journal of Nephrology, 42: 248, 2000) using male SD rats of 8-9 weeks age and about 280 g. Thus, the rat was laparotomized under anesthetization with ether and ureter was ligated with 7-0 Nylon at the height of the margin of lower pole of left kidney to close the abdomen. On the 14th day after obstruction, the obstruction was released and urinary passage was reconstructed using a cuff. Thus, after 14 days, the part of ligated obstructed ureter was resected, a polyethylene tube of 25 gages (manufactured by Nippon Sherwood) was used as a cuff and inserted into and retained at the lumen from the cut end of the lower normal ureter, then the cuff was also retained in the expanded upper ureter and each of them was ligated and fixed by 7-0 Nylon to reconstruct the urinary passage. At the same time, the right kidney at the opposite side was excised. After the release of the obstruction, body weight was measured, blood was collected on the 2nd day, 5th day and 7th day from the release to measure serum creatinine, then the rat was sacrificed under anesthetization and the left obstruction-released kidney was excised. With regard to the excised kidney, there were carried out measurement of weight of the kidney and pathological test for the kidney.
An in vivo biological test was carried out for the γ-lactone derivatives according to the present invention using the above models. With regard to the test compound, bulk powder of the test compound was dissolved in an aseptic physiological saline together with gum arabic and the final concentration of gum arabic was 5%(vol/vol). The concentration of the test compound 30 mg/ml was suspended in 5% gum arabic-saline solution. The preparation was subcutaneously injected at the dose of 30 mg/kg every day throughout the experiment. With regard to the test compound, there were used (9-1), (4-2) and (7-3) as the compounds of group I suppressing the SPFC production by allo-MLC stimulation, i.e., the compounds which selectively suppress the induction of effector macrophage in the presence of allo-MLC while there was used (3-2) as the compound of group II suppressing the SPFC production by LPS stimulation, i.e., the compounds which selectively suppress the induction of effector macrophage in the presence of LPS.
In the Table, “functional classification” of the compound means the above group I, group II and group III. “Compound” means the compound bearing each of the above-mentioned compound numbers. The fact whether glomerular lesion was suppressed was judged by the ameriolation of the lesions such as thickness of wall of Bowman's capsule, hyperplasia of mesangial cells and glomerular sclerosis. The fact whether lesion of tubulointerstitial tissue was suppressed was judged by the ameriolation of the lesions such as thickness of basement membrane of tubules, cellular infiltration and fibrosis of interstitial tissue. In the table, “control” is the result when the same test as above was carried out using 5% gum arabic only which is a solvent.
In order to further confirm whether the preventive and therapeutic effect of the γ-lactone derivatives of the present invention to the target cell damage is selective, (7-3) of the group I and (6-1) of the group II were used as test compounds and they were subcutaneously injected at the dose of 30 mg/kg every day and compared with the control group. With regard to the control group, only 5% gum arabic which is a solvent was used and the same test as above was carried out.

[4] = 144 h, human PBMC with LPS 80 μg/ml, incubated 6 days, Table 1, read-out: SPFC Production Inhibiting Concentration by LPS Stimulation (μM: IC50)
[5] = 144 h, human PBMC with mitomycin-treated human PBMC, incubated 6 days, Table 1, read-out: SPFC Production Inhibiting Concentration by all-MLC Stimulation (μM: IC50)
[6] = Homo sapiens, Table 5, read-out: Inhibiting Concentration for SPEC Production by LPS Stimulation (μM: IC50)
[7] = Homo sapiens, Table 5, read-out: Inhibiting Concentration for SPEC Production by allo-MLC Stimulation (μM: IC50)
[8] = 30 mg/kg subcutaneously every day
[9] = 30 mg/kg subcutaneously every day, Table 2

Compound	IC50 [1, 4] [µM]	IC50 [2, 5] [µM]	functional group (selective suppression of SPFC production by allo-MLC or LPS stimulation) [2]	further results
N#CC1(C(=O)OCc2ccccc2)CCC(=O)O1 (stereo not drawn) [(6-3), Benzyl 2-cyano-5-oxotetrahydrofuran-2-carboxylate]	0.001	0.1	group II	–
O=C1OC(O)(C(=O)OCc2ccccc2)c2ccccc21 (stereo not drawn) [(7-1), Benzyl 1-hydroxy-3-oxo-1,3-dihydroisobenzofuran-1-carboxylate]	1	0.1	group I	–
O=C1OC(Oc2ccc(F)cc2)(C(=O)O)c2ccccc21 (stereo not drawn) [(7-6), 1-(4-fluorophenoxy)-3-oxo-1,3-dihydro-isobenzofuran-1-carboxylic Acid]	0.01	> 1	group II	–
O=C1OC(Oc2ccc(F)cc2)(C(=O)OCc2ccccc2)c2ccccc21 (stereo not drawn) [(7-5), Benzyl 1-(4-fluorophenoxy)-3-oxo-1,3-dihydroisobenzofuran-1-carboxylate]	> 1	0.01	group I	–
O=C1CC[C@@](Oc2ccc(F)cc2)(C(=O)O)O1 [Compound (1), (−)-2-(4-fluorophenoxy)-5-oxotetrahydrofuran-2-carboxylic Acid]	> 1	0.01	group I	–
O=C1OC(F)(C(=O)OCc2ccccc2)c2ccccc21 (stereo not drawn) [(7-2), Benzyl 1-fluoro-3-oxo-1,3-dihydro-isobenzofuran-1-carboxylate]	0.1	> 1	group II	–
O=C1OC(Cl)(C(=O)OCc2ccccc2)c2ccccc21 (stereo not drawn) [(7-3), Benzyl 1-chloro-3-oxo-1,3-dihydro-isobenzofuran-1-carboxylate]	> 1	0.01	group I	IC50 [1, 6]: 0.01 µM; IC50 [2, 7]: 0.01 µM; selectivity of the suppressive effect on renal lesions [3, 8]: selective suppressive effect; Rate of Cases where Glomerular Lesion was Suppressed [3, 9]: 25% (1/4); Rate of Cases where tubulointerstitial Lesion was Suppressed [3, 9]: 100% (4/4); Serum Creatinine level (mg/dl) on the 7th Day from Release of Obstruction [3, 9]: 2.0 ± 0.6 mg/dL; Weight of Kidney (g) on the 7th Day from Release of Obstruction [3, 9]: 2.72 ± 0.47 g; Suppressive Effect to Glomerular Lesion [3]: x; Suppressive Effect to Lesion of Tubulointerstitial Tissue [3]: ∘
O=C1CCC(F)(C(=O)OCc2ccccc2)O1 (stereo not drawn) [(6-2), Benzyl 2-fluoro-5-oxotetrahydrofuran-2-carboxylate]	0.001	–	group II	IC50 [1, 6]: 0.001 µM; Suppressive Effect to Glomerular Lesion [3]: ∘; Suppressive Effect to Lesion of Tubulointerstitial Tissue [3]: x
CC(OC(=O)[C@@]1(Oc2ccc(F)cc2)CCC(=O)O1)c1ccc2ccccc2c1 (mixture of isomers) [(3-2), (RS)-(+)-α-methyl-2-naphthalene-methyl 2-(4-fluorophenoxy)-5-oxotetrahydrofuran-2-carboxylate]	1	> 1	group II	IC50 [1, 6]: 1 µM; IC50 [2, 7]: > 1 µM; selectivity of the suppressive effect on renal lesions [3, 8]: selective suppressive effect; suppression of glomerular lesion [3, 8]: suppressed the glomerular lesion only; suppression of lesion of tubulointerstitial tissue [3, 8]: did not suppress; Rate of Cases where Glomerular Lesion was Suppressed [3, 9]: 100% (5/5); Serum Creatinine level (mg/dl) on the 7th Day from Release of Obstruction [3, 9]: 2.0 ± 0.4 mg/dL; Weight of Kidney (g) on the 7th Day from Release of Obstruction [3, 9]: 4.36 ± 0.95 g; Suppressive Effect to Glomerular Lesion [3]: ∘; Suppressive Effect to Lesion of Tubulointerstitial Tissue [3]: x
O=C1CCC(Cc2ccccc2)(C(=O)OCc2ccccc2)O1 (stereo not drawn) [(5-4), Benzyl 2-benzyl-5-oxo-tetrahydrofuran-2-carboxylate]	1	0.01	group I	–
O=C1CCC(Cc2ccc(F)cc2)(C(=O)O)O1 (stereo not drawn) [(5-2), 2-(4-fluorobenzyl)-5-oxo-tetrahydrofuran-2-carboxylic Acid]	0.01	0.1	group II	–
O=C(O)C(=O)c1ccccc1C(=O)O [(7-7)]	0.01	> 1	group II	–
